The subject of experiment [1] is CAL51 cells. The experiment can be described thus: Cell Titre 96 Aqueous One Solution cell proliferation assay, CAL51 cells. The format is cell-based. The conditions noted are these: 2 days; for cell death compared to treatment with compound alone: in combination with TRAIL (50 or 250 ng/ml). As for the experimental part: (§1) FIGS. 1A to 1C show effects of 2-MeOEMATE and 2-EtEMATE on TRAIL induced apoptosis in CAL51 and MCF-7 cells. Cell proliferation assays in which CAL51 cells or MCF7 cells were plated at a density of 5,000 in 96 well plates and treated with 0, 0.05, 0.5 or 5 μM MeoEMATE or 2-EtEMATE in the presence of 0, 50 or 250 ng/ml recombinant human TRAIL. Results are the mean of triplicates+/−S.D. and are expressed as a percentage of results for untreated cells.
(§2) Cell proliferation was measured using the Cell Titre 96 Aqueous One Solution Cell proliferation assay (Promega). This is a colorimetric method which determines cell viability and can therefore be used to measure the ability of drugs to cause cell death. The assay is performed by adding the cell proliferation reagent directly to the cells. Metabolically active cells convert the reagent to a coloured formazan product and the absorbance at 490 nm is measured 1–4 hrs after incubation at 37° C.
(§3) For the TRAIL co-operation experiments, CAL-51 of MCF-7 cells were plated at 5,000 cells per well in 96 well plates. CAL-51 cells were treated with 0, 0.05, 0.5 or 5 μM 2-MeOEMATE or 2-EtEMATE in the presence of 0, 50 or 250 ng/ml recombinant human TRAIL. MCF7 cells were treated with 5 μM 2-MeOEMATE or 2-EtEMATE in the presence or absence of 250 ng/ml recombinant human TRAIL. Cell proliferation was measured 2 days (CAL-51) or 1 day (MCF-7) after addition of drugs. Tests were performed in triplicate and data are means of triplicate results+/−S.D. and are expressed as a percentage of results obtained for untreated cells. Experiments on CAL-51 cells were performed 4 times for each compound and once for each compound on MCF-7 cells.

For experiment [2], the system named is MCF-7 cells. The experiment can be described thus: Cell Titre 96 Aqueous One Solution cell proliferation assay, MCF-7 cells. The format is cell-based. The conditions noted are these: 24 hrs. As for the experimental part:
as §1, §2, §3

In experiment [3] the test system is DR5 mRNA. The experiment can be described thus: RNAse protection assay, DR5 mRNA levels in Cal51 cells. Format: cell-based, Human. The conditions noted are these: 0.5 μM, between 24 and 48 hours. As for the experimental part:
(§4) RNAse protection assay showing DR5, DR4 and GAPDH mRNA levels at 0, 8, 16, 24 and 48 hours following treatment with 0.5 μM 2-MeOEMATE and 2-EtEMATE in Cal51 cells.
(§5) We investigated if the co-operation observed between TRAIL and 2-MeOEMATE or 2-EtEMATE to induce cell death in CAL51 cells was due to upregulation of DR4 and/or DR5 receptors by 2-MeOEMATE and 2-EtEMATE. We used RNAse protection assays to examine the levels of mRNAs for DR4 and DR5 following treatment of CAL51 cells with 2-MeOEMATE and 2-EtEMATE over 48 hours.
(§6) This experiment was performed once. A radiolabeled RNA multi-probe was synthesised (Pharmingen RiboQuant Human Apoptosis Multiprobe template set hAPO-3c) using [α^32P] UTP and […] RNA polymerase. This multi-probe template set allows simultaneous generation of several probes for detection and measurement of apoptosis related genes. […]
(§7) Total RNA was prepared using Trizol reagent (Gibco-BRL) from CAL-51 cells treated with 2-MeOEMATE or 2-EtEMATE for 0, 8, 16, 24 and 48 hrs. […] The gel was dried and analysed by phosphoimaging on the Personal Molecular Imager Fx (Biorad). Protected fragment bands corresponding to DR5 and GAPDH were quantified and expressed as a ratio of DR5/GAPDH to normalise results.

Experiment [4] relates to DR4 mRNA. The experiment can be described thus: RNAse protection assay, DR4 mRNA levels in Cal51 cells. The format is cell-based, Human. The conditions noted are these: 0.5 μM, over 48 hours. As for the experimental part:
as §4, §5, §6, §7

Experiment [5] deals with caspase 3. Nature of the experiment: Western blot of caspase 3 activation in Cal51 cells. Format: cell-based. The conditions noted are these: Cal51 cells, 48 hours; for activation of caspase 3 compared to compound alone: 5 μM compound in combination with 250 ng/ml TRAIL; for activation of caspase 3 (reduction of unprocessed caspase 3): treatment alone, 5 μM compound or 250 ng/ml TRAIL. As for the experimental part:
FIG. 3. Effect of 2-MeOE2bisMATE on caspase 8 and caspase 3 activation and PARP cleavage in Cal51 cells. Western blots showing caspase 8 and caspase 3 unprocessed and active fragments and PARP uncleaved and cleaved products following treatment of Cal51 cells with solvent, 0.05, 0.5 or 5 μM 2-MeOE2bisMATE for 48 hours.
FIG. 5. Effect of 2-MeOE2bisMATE on the timing of caspase 3 and caspase 8 activation and PARP cleavage in Cal51 cells. Western blots showing caspase 3, caspase 8 and PARP unprocessed and cleaved products at 0, 8, 16, 24 and 48 hrs following treatment of Cal51 cells with 5 μM 2-MeOE2bisMATE for 48 hrs or untreated for 48 hrs (48NT).
FIG. 7. Effect of combined treatment of 2-EtEMATE or 2-MeOEMATE and TRAIL on caspase 3 activation in Cal51 cells. Western blots showing caspase 3 activation following treatment of Cal51 cells for 48 hours with solvent, 250 ng/ml TRAIL and 5 μM 2-EtEMATE or 2-MeOEMATE in the presence or absence of 250 ng/ml TRAIL. PCNA levels represent corresponding loading controls. 1, control; 2, THF solvent; 3, TRAIL; 4, 2-EtEMATE; 5,2-EtEMATE+TRAIL; 6, control; 7, THF solvent; 8, TRAIL; 9, 2-MeOEMATE; 10, 2-MeOEMATE+TRAIL
To determine whether caspases might play a role in cell death induced by 2-MeOE2bisMATE and other sulfamoylated oestrogen derivatives, we examined the expression of caspase 3, caspase 8 and PARP by immunoblotting (FIG. 3). […] Therefore, cell death induced by the 2-MeOE2bisMATE in Cal51 cells is associated with caspase activation.
There are two major pathways of apoptosis; cell surface death receptors activate caspases directly via activation of caspase 8 whereas other apoptotic stimuli operate via triggering the release of cytochrome c from mitochondria which subsequently activates caspases. Both pathways ultimately result in activation of caspase 3 and PARP cleavage. Since activation of caspase 8 is an indicator for the direct involvement of death receptors, it is important to determine whether activation of caspase 8 by 2-MeOE2bisMATE precedes or follows caspase 3 activation. We therefore performed time course experiments in Cal51 cells treated with 2-MeOE2bisMATE to order the activation events. Caspase 3 activation was first detected at 16 hours and as expected was followed by PARP cleavage at 24 hours (FIG. 5). Caspase 8 activation was a relatively late event, first detected at 48 hours. Therefore activation of caspase 3 induced by 2-MeOE2bisMATE precedes activation of caspase 8.
To further explore the mechanism for co-operation between sulfamoylated oestrones and TRAIL, we analysed activation of caspase 3 (FIG. 7). […] Therefore, sulfamoylated oestrones and TRAIL cooperate to activate caspase 3.

Experiment [6] concerns DR5 protein. Nature of the experiment: Western blot of DR5 protein levels in Cal51 cells. The format is cell-based. The conditions noted are these: 48 hours, 0.05, 0.5 and 5 μM. As for the experimental part:
FIG. 6. […] Western blot showing DR5 protein levels following treatment of Cal51 cells for 48 hours with 0, 0.05, 0.5 and 5 μM of 2-MeOEMATE or 2-EtEMATE. PCNA levels represent corresponding loading controls.
Protein lysates were prepared from CAL51 cells treated with various compounds and analysed for expression of DR5 by immunoblotting (FIG. 6).

The target in experiment [7] is T1, E1-STS (Homo sapiens, UniProt P08842).
T1 sequence (P08842 22-583): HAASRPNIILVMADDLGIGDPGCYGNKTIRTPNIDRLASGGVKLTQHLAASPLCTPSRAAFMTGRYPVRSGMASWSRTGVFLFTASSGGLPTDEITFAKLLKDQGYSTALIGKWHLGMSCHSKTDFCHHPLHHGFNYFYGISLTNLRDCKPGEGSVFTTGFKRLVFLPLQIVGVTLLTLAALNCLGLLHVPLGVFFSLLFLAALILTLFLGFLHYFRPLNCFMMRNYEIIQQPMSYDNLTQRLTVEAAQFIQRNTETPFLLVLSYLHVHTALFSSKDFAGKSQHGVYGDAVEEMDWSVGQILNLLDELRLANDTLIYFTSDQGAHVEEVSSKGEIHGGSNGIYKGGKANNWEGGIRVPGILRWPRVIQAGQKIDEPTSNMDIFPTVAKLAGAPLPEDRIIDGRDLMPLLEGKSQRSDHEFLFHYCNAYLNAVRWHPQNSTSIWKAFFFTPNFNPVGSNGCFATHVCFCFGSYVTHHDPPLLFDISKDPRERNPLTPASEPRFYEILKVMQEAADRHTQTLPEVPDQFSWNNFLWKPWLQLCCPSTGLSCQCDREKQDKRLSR
The conditions noted are these: cited from earlier work.

Experiment [8] concerns the target T1, E1-STS. The arrangement: E1-STS activity in intact MCF-7 cells; endogenous in cells; host or cells: MCF-7 cells. The conditions noted are these: intact MCF-7 cells, 0.1 μM; cited from earlier work.
Setting [9] is: 5 μM compound in combination with 250 ng/ml TRAIL.
Setting [10] is: treatment alone, 5 μM compound or 250 ng/ml TRAIL.

Results on 4 molecules are retold here after US7211246B2, “Compositions comprising oestrone-3-0-sulphamate and trail (TNF-related apoptosis inducing ligand)” (Sterix Limited, priority 2001, dated 2007).

Consider `CCc1cc2c(cc1OS(N)(=O)=O)CCC1C2CCC2(C)C(=O)CCC12` (stereo not drawn) [2-EtEMATE, 2-ethyloestrone-3-O-sulphamate], for which the “cell death compared to treatment with compound alone” value in experiment [1] is “enhanced the amount of cell death”. In addition, the cell death in experiment [2] (setting [9]) was determined as 36%; in experiment [2] (setting [10]), 16%. Besides, the “DR5 mRNA levels (DR5/GAPDH) compared to untreated control” value in experiment [3] is given as “significantly increased”. In addition, the “DR4 mRNA levels” value in experiment [4] is “did not change significantly”. Besides, the “activation of caspase 3 compared to compound alone” value in experiment [5] is reported as “further enhanced”. Moreover, the “activation of caspase 3 (reduction of unprocessed caspase 3)” value in experiment [5] is on record as “induced activation of caspase 3”. In experiment [6], the “DR5 protein levels by western blot” value is listed as “did not detect a significant increase”.

Turning to `COc1cc2c(cc1OS(N)(=O)=O)CCC1C2CCC2(C)C(=O)CCC12` (stereo not drawn) [2-MeOEMATE, 2-methoxyoestrone-3-O-sulphamate], the “cell death compared to treatment with compound alone” value in experiment [1] is “enhanced the amount of cell death”. Besides, the cell death in experiment [2] (setting [9]) was determined as 35%. The cell death in experiment [2] (setting [10]) amounted to 13%. The “DR5 mRNA levels (DR5/GAPDH) compared to untreated control” value in experiment [3] is reported as “significantly increased”. In addition, in experiment [4], the “DR4 mRNA levels” value is “did not change significantly”. Also, in experiment [5], the “activation of caspase 3 compared to compound alone” value is listed as “further enhanced” and the “activation of caspase 3 (reduction of unprocessed caspase 3)” value is “induced activation of caspase 3”. The “DR5 protein levels by western blot” value in experiment [6] is “did not detect a significant increase”.

In the case of `CC12CCC3c4ccc(OS(N)(=O)=O)cc4CCC3C1CCC2=O` (stereo not drawn) [EMATE, oestrone-3-sulphamate], the “inhibition of the E1-STS enzyme” value in experiment [7] is “time- and concentration-dependent manner”. Further, the “inhibition of E1-STS activity” value in experiment [8] is given as “more than 99%”.

B1: TRAIL: Tumour necrosis factor (TNF) related apoptosis inducing ligand; recombinant human TRAIL used in the tests (protein, UniProt P50591 1-281, looked up)
Tumor necrosis factor ligand …: MAMMEVQGGPSLGQTCVLIVIFTVLLQSLCVAVTYVYFTNELKQMQDKYSKSGIACFLKEDDSYWDPNDEESMNSPCWQVKWQLRQLVRKMILRTSEETISTVQEKQQNISPLVRERGPQRVAAHITGTRGRSNTLSSPNSKNEKALGRKINSWESSRSGHSFLSNLHLRNGELVIHEKGFYYIYSQTYFRFQEEIKENTKNDKQMVQYIYKYTSYPDPILLMKSARNSCWSKDAEYGLYSIYQGGIFELKENDRIFVSVTNEHLIDMDHEASFFGAFLVG
In the case of B1, in experiment [1] (TRAIL alone (50 or 250 ng/ml)), the “TRAIL induced cell death” value is listed as “resistant to TRAIL induced cell death”. For the same molecule, the cell death in experiment [2] (setting [10]) came out at 12%. The “activation of caspase 3 (reduction of unprocessed caspase 3)” value in experiment [5] was “no detectable caspase 3 activation”.
